Source: ChEMBL document CHEMBL5360581, “Discovery of a novel dual functional phenylpyrazole-styryl hybrid that induces apoptotic and autophagic cell death in bladder cancer cells” (Eur J Med Chem, 2023)
Activity calls are given as the source filed them. The rule behind the calls is not given here.

Key:
EJ-28 [1] = assay: Antiproliferative activity against human EJ-28 cells assessed as reduction in cell viability at 20 uM measured for 72 hrs by MTT assay; format: functional, cell-based
EJ-28 [2] = assay: Induction of morphological changes in human EJ-28 cells assessed as cell rounding at 7.5 uM incubated for 24 to 72 hrs by microscopic analysis; format: functional, cell-based; settings: time 24-72 hrs
EJ-28 [3] = assay: Induction of cell cycle arrest in human EJ-28 cells assessed as accumulation of cells at S phase at 2.5 uM incubated for 48 hrs by propidium iodide staining based flow cytometry (reference value: 30%); format: functional
EJ-28 [4] = assay: Induction of cell cycle arrest in human EJ-28 cells assessed as accumulation of cells at S phase at 10 uM incubated for 48 hrs by propidium iodide staining based flow cytometry (reference value: 30%); format: functional
EJ-28 [5] = assay: Induction of apoptosis in human EJ-28 cells assessed as upregulation of Bcl-2 expression incubated for 24 hrs by Western blotting analysis; format: functional, cell-based
EJ-28 [6] = assay: Induction of apoptosis in human EJ-28 cells assessed as upregulation of phosphorylated Bcl-2 level incubated for 24 to 72 hrs by Western blotting analysis; format: functional, cell-based; settings: time 24-72 hrs
EJ-28 [7] = assay: Induction of apoptosis in human EJ-28 cells assessed as upregulation of Bad expression incubated for 48 hrs by Western blotting analysis; format: functional, cell-based
EJ-28 [8] = assay: Induction of apoptosis in human EJ-28 cells assessed as upregulation of Bax expression incubated for 24 hrs by Western blotting analysis; format: functional, cell-based
EJ-28 [9] = assay: Induction of autophagy in human EJ-28 cells assessed as increase in green fluorescence intensity at 5 to 12.5 uM incubated for 24 hrs by flow cytometry analysis; format: functional, cell-based; settings: dose 5-12.5 µM
EJ-28 [10] = assay: Induction of autophagy in human EJ-28 cells assessed as downregulation of EGFR expression at 5 to 12.5 uM incubated for 24 hrs by Western blot analysis; format: functional, cell-based; settings: dose 5-12.5 µM
EJ-28 [11] = assay: Induction of autophagy in human EJ-28 cells assessed as downregulation of mTOR expression at 5 to 12.5 uM incubated for 24 hrs by Western blot analysis; format: functional, cell-based; settings: dose 5-12.5 µM

O=[N+]([O-])c1cccc(/C=C/c2cc(-c3cc(Cl)ccc3O)n(-c3ccccc3)n2)c1
Activity (EJ-28 [1]): Active
Activity (EJ-28 [2]): Active
Activity (EJ-28 [3]): 16%
Activity (EJ-28 [4]): 23%
Activity (EJ-28 [5]): Active
Activity (EJ-28 [6]): Active
Activity (EJ-28 [7]): Active
Activity (EJ-28 [8]): inactive
Activity (EJ-28 [9]): Active
Activity (EJ-28 [10]): Active
Activity (EJ-28 [11]): Active
